From patent EP0802730B1, “PESTICIDAL COMPOUNDS” (BTG INTERNATIONAL LIMITED, priority 1995, dated 1996)
In brackets after ≈: the same amount, converted by molar mass.

Tested on: Houseflies (MD) (Musca domestica)
Assay: not given
Format: in vivo
Settings: Tables 10, 13, 14; NA = lack of detectable activity
Procedure: Female flies were treated on the thorax with a one microlitre drop of test compound dissolved in acetone. Two replicates of 15 flies were used at each dose rate and 6 dose rates were used per compound under test. After treatment, the flies were maintained at a temperature of 20° ± 1°C and kill was assessed 24 and 48 hours after treatment. LD50 values were calculated in micrograms of test compound per fly (see Sawicki et al., Bulletin of the World Health Organisation, 35, 893 (1966) and Sawicki et al., Entomologia and Exp. Appli 10, 253, (1967).

Structure (SMILES) | MD LD50 (µg/insect)
CCCCC1=C(O)C(=O)c2ccccc2C1=O [-(CH2)3CH3, reference compound] | c10 µg/insect
CCCCCCCCC1=C(O)C(=O)c2ccccc2C1=O [-(CH2)7CH3, reference compound] | 1.9 µg/insect
CCC1(C2=C(O)C(=O)c3ccccc3C2=O)CCCCC1 [Example 26, 2-(1'-ethylcyclohexyl)-3-hydroxy-naphthalene-1,4-dione] | 13 µg/insect
C=CC1(C2=C(O)C(=O)c3ccccc3C2=O)CCCCC1 [Example 27, 2-(1'-ethenecyclohexyl)-3-hydroxy-naphthalene-1,4-dione] | 6.0 µg/insect
O=C1C(O)=C(C2(C(F)(F)F)CCCCC2)C(=O)c2ccccc21 [Example 28, 2-hydroxy-3-(1'-trifluoromethylcyclohexyl)-naphthalene-1,4-dione] | 14 µg/insect
C=CC1(C2=C(O)C(=O)c3ccccc3C2=O)CCCC1 [Example 30] | 15 µg/insect
CC(C)(C)CC1=C(O)C(=O)c2ccccc2C1=O [Example 35, 2-(2,2-dimethylpropyl)-3-hydroxy-naphthalene-1,4-dione] | 1.2 µg/insect

Same assay, conditions: house fly, in vivo

Structure (SMILES) | MD (LD50)
CC(C)(C)C1CCC(C2=C(O)C(=O)c3ccccc3C2=O)CC1 (stereo not shown) [Compound B, 2-hydroxy-3-(4-t-butylcyclohexyl)-naphthalene-1,4-dione, reference compound] | 15.5

Same assay, conditions: topical 1 µl drop in acetone on female flies; kill assessed 24 and 48 hours

Structure (SMILES) | MD (LD50)
C=CC(C)(C)C1=C(OC(=O)CC)C(=O)c2ccccc2C1=O [Example 4] | 8.2 µg/insect
C=CC(C)(C)C1=C(OC(=O)CCCC)C(=O)c2ccccc2C1=O [Example 6] | c. 2.0 µg/insect
C=CC(C)(C)C1=C(OC(=O)CCCCC)C(=O)c2ccccc2C1=O [Example 7] | > 20 µg/insect
C=CC(C)(C)C1=C(OC(=O)C(C)C)C(=O)c2ccccc2C1=O [Example 10] | > 20 µg/insect
C=CC(C)(C)C1=C(OC)C(=O)c2ccccc2C1=O [Example 12, 2-(1,1-dimethylprop-2-enyl)-3-methoxy-naphthalene-1,4-dione] | > 20 µg/insect
C=CC(C)(C)C1=C(O)C(OC)(OC)c2ccccc2C1=O [Example 14, 1,1-dimethoxy-2-hydroxy-3-(1,1-dimethylprop-2-enyl)-naphthalene-4-one] | c. 2.5 µg/insect
CCCC(C)(C)C1=C(O)C(=O)c2ccccc2C1=O [Example 16] | 8.8 µg/insect
CCCC(C)(C)C1=C(OC(=O)CC)C(=O)c2ccccc2C1=O [Example 17] | 14 µg/insect

Tested on: Mustard beetles (PC) (Phaedon cochleariae Fab)
Assay: not given
Format: in vivo
Settings: 1 µl acetone drop applied ventrally to adults; kill at 48 hours; NA = lack of detectable activity
Procedure: A one microlitre drop of an acetone solution of the test compound was applied ventrally to adult mustard beetles using a micro drop applicator. The treated insects were maintained for 48 hours after which time kill was assessed. Two replicates each of 20 to 25 mustard beetles were used at each dose level and 5 dose levels were treated comparably. LD50 values were calculated as for houseflies.

Structure (SMILES) | PC (LD50)
C=CC(C)(C)C1=C(OC(=O)CC)C(=O)c2ccccc2C1=O [Example 4] | 3.9 µg/insect
C=CC(C)(C)C1=C(OC(=O)CCCC)C(=O)c2ccccc2C1=O [Example 6] | 2.1 µg/insect
C=CC(C)(C)C1=C(OC(=O)CCCCC)C(=O)c2ccccc2C1=O [Example 7] | c. 6.0 µg/insect
C=CC(C)(C)C1=C(OC(=O)C(C)C)C(=O)c2ccccc2C1=O [Example 10] | c. 6.0 µg/insect
C=CC(C)(C)C1=C(OC)C(=O)c2ccccc2C1=O [Example 12, 2-(1,1-dimethylprop-2-enyl)-3-methoxy-naphthalene-1,4-dione] | c. 12.0 µg/insect
C=CC(C)(C)C1=C(O)C(OC)(OC)c2ccccc2C1=O [Example 14, 1,1-dimethoxy-2-hydroxy-3-(1,1-dimethylprop-2-enyl)-naphthalene-4-one] | c. 6.0 µg/insect
CCCC(C)(C)C1=C(O)C(=O)c2ccccc2C1=O [Example 16] | c. 10 µg/insect

Same assay, conditions: Tables 10, 13, 14; NA = lack of detectable activity

Structure (SMILES) | PC LD50 (µg/insect)
CCCCC1=C(O)C(=O)c2ccccc2C1=O [-(CH2)3CH3, reference compound] | c5 µg/insect
CCCCCCCCC1=C(O)C(=O)c2ccccc2C1=O [-(CH2)7CH3, reference compound] | 0.78 µg/insect
CCC1(C2=C(O)C(=O)c3ccccc3C2=O)CCCCC1 [Example 26, 2-(1'-ethylcyclohexyl)-3-hydroxy-naphthalene-1,4-dione] | 2.9 µg/insect
C=CC1(C2=C(O)C(=O)c3ccccc3C2=O)CCCCC1 [Example 27, 2-(1'-ethenecyclohexyl)-3-hydroxy-naphthalene-1,4-dione] | 4.7 µg/insect
C=CC1(C2=C(O)C(=O)c3ccccc3C2=O)CCCC1 [Example 30] | <20 µg/insect
CC(C)(C)CC1=C(O)C(=O)c2ccccc2C1=O [Example 35, 2-(2,2-dimethylpropyl)-3-hydroxy-naphthalene-1,4-dione] | 4.6 µg/insect

Same assay, conditions: mustard beetle, in vivo, 2880 min

Structure (SMILES) | PC (LD50)
CC(C)(C)C1CCC(C2=C(O)C(=O)c3ccccc3C2=O)CC1 (stereo not shown) [Compound B, 2-hydroxy-3-(4-t-butylcyclohexyl)-naphthalene-1,4-dione, reference compound] | 0.53

Tested on: Mites (TU) (Tetranychus urticae), susceptible strain (GSS)
Assay: Mite immersion test, susceptible strain GSS
Format: in vivo
Settings: 72 h, Tables 10, 13, 14, susceptible strain, NA = lack of detectable activity, read-out: TU LC50 (ppm/insect)
Procedure: 25 adult female mites were immersed in 35 µl of a solution of the test compound in a 1:4 acetone-water mixture for 30 seconds. The treated insects were maintained at 21° ± 2°C and kill was assessed 72 hours after treatment. […] Three replicates of 25 mites each were used at each dose rate and 5 or 6 dose rates were used per compound under test. LC50 values were calculated in ppm of the solution of the test compound per insect. The test was carried out using a susceptible strain of mites (GSS) supplied by Schering, AG, Berlin.

Structure (SMILES) | LC50 [mg/L]
CCCCC1=C(O)C(=O)c2ccccc2C1=O [-(CH2)3CH3, reference compound] | 65 (≈ 282 µM)
CCCCCCCCC1=C(O)C(=O)c2ccccc2C1=O [-(CH2)7CH3, reference compound] | ~1000 (≈ 3490 µM)
CCC1(C2=C(O)C(=O)c3ccccc3C2=O)CCCCC1 [Example 26, 2-(1'-ethylcyclohexyl)-3-hydroxy-naphthalene-1,4-dione] | > 100
C=CC1(C2=C(O)C(=O)c3ccccc3C2=O)CCCCC1 [Example 27, 2-(1'-ethenecyclohexyl)-3-hydroxy-naphthalene-1,4-dione] | ~80 (≈ 283 µM)
O=C1C(O)=C(C2(C(F)(F)F)CCCCC2)C(=O)c2ccccc21 [Example 28, 2-hydroxy-3-(1'-trifluoromethylcyclohexyl)-naphthalene-1,4-dione] | 40 (≈ 123 µM)
C=CC1(C2=C(O)C(=O)c3ccccc3C2=O)CCCC1 [Example 30] | 6 (≈ 22.4 µM)

Same assay, conditions: 72 h, text b201, no unit printed there, read-out: TU (GSS) LC50

Structure (SMILES) | LC50 [mg/L]
CC(C)(C)C1CCC(C2=C(O)C(=O)c3ccccc3C2=O)CC1 (stereo not shown) [Compound B, 2-hydroxy-3-(4-t-butylcyclohexyl)-naphthalene-1,4-dione, reference compound] | 44 (≈ 141 µM)

Same assay, conditions: ppm solution of test compound, 30 seconds immersion, kill at 72 hours, read-out: TU(GSS) (LC50)

Structure (SMILES) | LC50 [mg/L]
C=CC(C)(C)C1=C(OC(=O)CC)C(=O)c2ccccc2C1=O [Example 4] | 18 (≈ 60.3 µM)
C=CC(C)(C)C1=C(OC(=O)CCCC)C(=O)c2ccccc2C1=O [Example 6] | 27 (≈ 82.7 µM)
C=CC(C)(C)C1=C(OC(=O)CCCCC)C(=O)c2ccccc2C1=O [Example 7] | 53 (≈ 156 µM)
C=CC(C)(C)C1=C(OC(=O)C(C)C)C(=O)c2ccccc2C1=O [Example 10] | 15 (≈ 48 µM)
C=CC(C)(C)C1=C(O)C(OC)(OC)c2ccccc2C1=O [Example 14, 1,1-dimethoxy-2-hydroxy-3-(1,1-dimethylprop-2-enyl)-naphthalene-4-one] | ~800 (≈ 2770 µM)
CCCC(C)(C)C1=C(O)C(=O)c2ccccc2C1=O [Example 16] | 91 (≈ 352 µM)
CCCC(C)(C)C1=C(OC(=O)CC)C(=O)c2ccccc2C1=O [Example 17] | 50 (≈ 159 µM)

Tested on: Whitefly (BT) (Bemisia tabaci), susceptible strain (SUD-S)
Assay: Whitefly residual film vial test, susceptible strain SUD-S
Format: in vivo
Settings: 48 h, Tables 10, 13, 14, susceptible strain, NA = lack of detectable activity, read-out: BT LC50 (ppm/insect)
Procedure: Acetone solutions (0.100 ml) of the test compounds were placed in 10 ml glass vials and evaporated with rotation to deposit a film of the compound. Thirty adult whiteflies were placed inside the vial, then after 60 minutes, the treated insects were transferred onto untreated cotton leaf discs which were kept moist on a bed of agar gel. The temperature was maintained at 25°C and mortality assessed after 48 hours. Three replicates were used at each of 5 to 7 dose levels per compound.

Structure (SMILES) | LC50 [mg/L]
CCCCC1=C(O)C(=O)c2ccccc2C1=O [-(CH2)3CH3, reference compound] | 13 (≈ 56.5 µM)
CCCCCCCCC1=C(O)C(=O)c2ccccc2C1=O [-(CH2)7CH3, reference compound] | 19 (≈ 66.3 µM)
CCC1(C2=C(O)C(=O)c3ccccc3C2=O)CCCCC1 [Example 26, 2-(1'-ethylcyclohexyl)-3-hydroxy-naphthalene-1,4-dione] | 2.9 (≈ 10.2 µM)
C=CC1(C2=C(O)C(=O)c3ccccc3C2=O)CCCCC1 [Example 27, 2-(1'-ethenecyclohexyl)-3-hydroxy-naphthalene-1,4-dione] | 0.9 (≈ 3.19 µM)
O=C1C(O)=C(C2(C(F)(F)F)CCCCC2)C(=O)c2ccccc21 [Example 28, 2-hydroxy-3-(1'-trifluoromethylcyclohexyl)-naphthalene-1,4-dione] | 24 (≈ 74 µM)
C=CC1(C2=C(O)C(=O)c3ccccc3C2=O)CCCC1 [Example 30] | ~50 (≈ 186 µM)
CC(C)(C)CC1=C(O)C(=O)c2ccccc2C1=O [Example 35, 2-(2,2-dimethylpropyl)-3-hydroxy-naphthalene-1,4-dione] | ~12 (≈ 49.1 µM)

Same assay, conditions: 48 h, text b201, no unit printed there, read-out: BT(SUD-S) LC50

Structure (SMILES) | LC50 [mg/L]
CC(C)(C)C1CCC(C2=C(O)C(=O)c3ccccc3C2=O)CC1 (stereo not shown) [Compound B, 2-hydroxy-3-(4-t-butylcyclohexyl)-naphthalene-1,4-dione, reference compound] | 18 (≈ 57.6 µM)

Same assay, conditions: ppm solution of test compound, 60 minutes film exposure, mortality after 48 hours, read-out: BT(SUD-S) (LC50)

Structure (SMILES) | LC50 [mg/L]
C=CC(C)(C)C1=C(OC(=O)CC)C(=O)c2ccccc2C1=O [Example 4] | 5.3 (≈ 17.8 µM)
C=CC(C)(C)C1=C(OC(=O)CCCC)C(=O)c2ccccc2C1=O [Example 6] | 16 (≈ 49 µM)
C=CC(C)(C)C1=C(OC(=O)CCCCC)C(=O)c2ccccc2C1=O [Example 7] | < 100
C=CC(C)(C)C1=C(OC(=O)C(C)C)C(=O)c2ccccc2C1=O [Example 10] | 35 (≈ 112 µM)
CCCC(C)(C)C1=C(O)C(=O)c2ccccc2C1=O [Example 16] | 10 (≈ 38.7 µM)

Tested on: Myzus persicae, susceptible strain (US1L)
Assay: Aphid dip test, susceptible strain
Format: in vivo
Settings: read-out: MP % kill 100 ppm
Procedure: Activity against resistant (R) and susceptible (S) strains of aphid (Myzus persicae) was assessed using the following method.
Entrapment rings of fluon were painted halfway up the inside of 4 cm lengths of glass tubing (1.5 cm diameter), and squares of insect-proof gauze were attached to one end of each tube by elastic bands. Fifteen apterous adults were then gently transferred into the tubes using a sable-hair brush, and the tube sealed with a second gauze square.
Tubes containing aphids were dipped into insecticide solutions for 10 seconds, dried on blotting paper, and then inverted and tapped to cause treated aphids to fall to the unimmersed end of each tube. Handling mortality (usually zero or very slight) was scored after 1 hour, when aphids were transferred onto chinese cabbage leaf-discs (35 mm diameter) on an agar bed (25 mm in depth) in disposible plastic containers (30 mm high) and confined by applying a ring of fluon to the exposed lip of the container. Containers were store upright, without lids, in a constant environment facility maintained at 25°C under continuous room lighting. Mortality was assessed at 24, 48 and 72 hours. Two replicates of 15 aphids each were used at each dose rate and 5 or 6 dose rates were used per compound under test.
The test was carried out using a susceptible strain of aphids (US1L) collected in the field in East Anglia, UK and an extremely resistant strain of aphids (794Jz) (R3 esterase, sensitive AChE) collected from glasshouses in the UK.
The values given are % mortality corrected for control data. The control comprised the test solution without active ingredient.

Structure (SMILES) | mortality at 100 ppm [%]
O=C1C(O)=C(C2(C(F)(F)F)CCCCC2)C(=O)c2ccccc21 [Example 28, 2-hydroxy-3-(1'-trifluoromethylcyclohexyl)-naphthalene-1,4-dione] | 5
